Assays:
[1] = tested on: keratinocytes and dermal fibroblasts; experiment: In vitro scratch wound-healing assay; format: cell-based, human and mouse
Procedure: (§1) A confluent monolayer of control and Agrin depleted cells in a 6-well plate was subjected to a unidirectional scratch using a 20 μl pipette tip. This was followed by washing with 1×PBS at room temperature and incubation in complete culture media at 37° C. and 5% CO2 with or without sAgrin used as indicated. Phase contrast images of the wound area were taken periodically at the indicated time-points. For some wound-healing migration assays, keratinocytes were cultured on either soft or stiff substrates within a stencil barrier (Nalge Nunc., Inc) for 18 h. Upon removal of the barrier, the cells were allowed to migrate and imaged using an Axiovert 200 inverted microscope at indicated time-points.

mouse skin explants = experiment: Mouse skin explant assay (keratinocyte outgrowth); format: cell-based; settings: soft matrix with 20 μg/ml sAgrin; MMP408 5 nM, 5 days
Procedure: Three days old ICR strain mouse pups were sacrificed and the hind skin on either side of the midline in the shoulder region was washed in 70% ethanol and excised using scalpel. The excised skin was washed in 70% ethanol and placed (dermis side down) on the pre-made gel substrates of defined stiffness, either in the absence or presence of 20 μg/ml sAgrin. The explants were allowed to adhere for 2 h before adding the keratinocyte culture medium (DMEM) containing 300 μM Ca^2+ as described previously^31. The keratinocyte outgrowth and the skin tissues regularly imaged under an Axiovert-200 inverted microscope and were subsequently fixed in 4% paraformaldehyde and immunostained for Keratin 17 antibody.
Tissue culture plates were coated with Col-T-gel (Fischer Scientific) of stiffness ranging from 0.8 KPa (soft) to 30 KPa (stiff) as per manufacturer recommendations and allowed to solidify for 40 min at 37° C. inside tissue culture incubators. Some experiments were performed with cells seeded on the poly-hydrogel plates of defined stiffness: 0.2 kPa and 16 kPa soft and hard polyhydrogels, respectively (CytoSoft, Advanced Biomatrix, Inc.,). The determination of stiffness of silicone substrates were done by the manufacturer as per previously published protocols. For certain experiments, indicated amounts of sAgrin was incorporated into the 0.8 KPa collagen gels before gelation process. Upon gelation, trypsinized cells or excised mouse skin explants were plated onto the gels of different stiffness either alone or containing sAgrin. The cells/tissues were incubated under standard culture condition with 500 μl recommended culture medium for the indicated days. The crossbow shaped micropatterns with fibronectin coated islands were generated by microlithography on a 19.5×19.5 mm coverslide from Cytoo, Inc., France. The micropatterns had surface areas of 800μ^2 or 1600μ^2, respectively. Fifty thousand cells after initial siRNA treatment was placed on the micropatterns for 4-6 h before processing them for immunofluorescence. […]

[2] = tested on: phosphorylated myosin light chain (pMLC); experiment: Actomyosin cables / pMLC activation after wound scratch; format: cell-based, human; settings: 10 μm Blebbistatin 2 h before scratch
Procedure: Indicated cells post-manipulation were washed twice with cold Phosphate buffered saline (PBS) and lysed with cold 1% NP-40 lysis buffer supplemented with 1× protease inhibitor cocktail (Roche Applied Biosciences) for 15 mins at 4° C. The cell lysate was centrifuged at 13,000 rpm for 15 min. This was followed by protein estimation using Bradford reagent. Subsequently, […] of total protein was mixed with an equal volume of 2× Laemmli sample buffer and heated at 95° C. for 5 mins. This was followed by resolution with SDS-PAGE gel. The resolved proteins were transferred onto nitrocellulose membrane and blocked in 5% skimmed milk reconstituted in 1×PBS containing 0.1% Tween-20, and probed overnight with the respective primary antibody. The membrane was then washed with 1×PBS supplemented with 0.1% Tween-20: three times at 15 min intervals. This was followed by 1 h incubation in conjugated horseradish peroxidase HRP secondary antibody (Santa Cruz Biotechnology). Post-incubation, the blot was again washed three times as above and then overlaid with enhanced chemiluminescence (ECL) substrate (Pierce/Bio-Rad) and visualized on X-ray film by image processor or digitally by Chemidoc analyzer (Bio-Rad). The density of the various bands was quantified using the Image-J software.
Cells were cultured on eight-well chamber slides or coverslips over-night. Cells were then washed twice with PBS and fixed for 15 min with 4% paraformaldehyde. Subsequently, the cells were permeabilized for 15 min with 0.1% Triton X in Phosphate buffered saline containing 1 mM Ca^+2 and 1 mM Mg^+2 (PBSCM) at room temperature. The permeabilized cells were incubated with indicated antibodies in fluorescent dilution buffer (FDB) for 1-2 h at RT or overnight at 4° C., followed by 5 washes with PBSCM and incubation with secondary antibody; Alexa Fluor (Thermo Fisher Scientific) for 1 h at RT. Slides were again washed five times with PBSCM and mounted with Vectashield medium containing DAPI. The stained cells were then imaged by a Zeiss confocal microscope. The images were processed and analyzed by Zen blue software. Intensity measurements were acquired using tool selection parameter in image analysis within the Zen blue software.
as §1

pMLC = experiment: Force transmission via ligand conjugated magnetic beads; format: cell-based, human; settings: siAgrin cells
Procedure: The ligands were conjugated to 4.5 μm epoxide paramagnetic beads (Dynabeads M-450 Epoxy, Thermo Fisher Scientific) according to the manufacturer's manual. Briefly, the beads were washed twice in 0.1 M sodium phosphate buffer, pH 7.4. Subsequently. 8×10^7 beads were conjugated to 20 μg sAgrin, BSA and FN per in 0.1 M sodium phosphate buffer at pH 7.4 for 16-18 h at 4° C. with gentle rotation throughout. The degree of protein conjugation to the beads was verified by a reducing SDS-PAGE gel analysis using a subset of ligand conjugated beads. The remaining beads were washed and subsequently stored in 0.1% BSA-phosphate buffered saline (PBS) pH 7.4 at 4° C. They were subsequently suspended in medium and added on the cells for 30 min at 37° C. After a brief wash with PBS to remove excess non-adherent beads, the cells were placed under a permanent neodymium magnet (J Magnetics, USA) at a distance of 6 mm apart for another 30 min that allowed a vertical tensile force in the magnitudes of ˜200 pN on the beads. The cells were then fixed in 4% paraformaldehyde, permeabilized and processed for immunofluorescence.

Molecule: COC(=O)Nc1ccc2oc3cc(S(=O)(=O)N[C@H](C(=O)O)C(C)C)ccc3c2c1 [MMP408, reference compound]
- migration of sAgrin induced K17 expressing keratinocytes ([1]; 5 nM MMP408, soft substrates and normal culture conditions): blunted the migration of sAgrin induced K17 expressing keratinocytes
- sAgrin induced K17 expressing migratory outgrowth (mouse skin explants): abruptly abolished

Molecule: Cc1ccc2c(c1)C(=O)C1(O)CCN(c3ccccc3)C1=N2 (centres unmarked) [blebbistatin, reference compound]
- sAgrin induced migration post-wound injury ([1]; 10 μm Blebbistatin, 18 h post-wounding): abolished the sAgrin induced migration
- sAgrin induced actomyosin cables [2]: abolished

B1: syndecan-4: Syndecan-4 conjugated to magnetic beads (protein, UniProt P31431 19-198, looked up)
Syndecan-4: ESIRETEVIDPQDLLEGRYFSGALPDDEDVVGPGQESDDFELSGSGDLDDLEDSMIGPEVVHPLVPLDNHIPERAGSGSQVPTEPKKLEENEVIPKRISPVEESEDVSNKVSMSSTVQGSNIFERTEVLAALIVGGIVGILFAVFLILLLMYRMKKKDEGSYDLGKKPIYKKAPTNEFYA
modifications: conjugated to magnetic beads
notes: Syndecan-4 conjugated to magnetic beads
- rescue of reduced pMLC in Agrin depleted cells by force through ligand beads (pMLC): rather insufficient to rescue myosin mechanotension
